Calls of active or inactive are those of the source. No cut-off for these calls is given here. Peptide text beside a SMILES is read from it. * marks the point of attachment. X1 = C[N+]1=C(/C=C/C=C2\N(CCCCCC(=O)*)c3ccccc3C2(C)C)C(C)(C)c2ccccc21
Key:
[1] = Fluorescence property of compound in HEPES buffer assessed as quantum yield; format: physicochemical
[2] = target: T1, Type-1 angiotensin II receptor (Homo sapiens) (UniProt P30556); assay: Agonist activity at Flag-tagged AT1R (unknown origin) extracted from HEK293T cell membrane co expressing YPET-ARRB1 assessed as beta-arrestin 1 recruitment using NanoGlo as substrate preincubated for 30 mins followed by substrate addition for 10 mins by BRET assay; format: functional, cell membranes; settings: HEK293
T1 sequence (whole entry): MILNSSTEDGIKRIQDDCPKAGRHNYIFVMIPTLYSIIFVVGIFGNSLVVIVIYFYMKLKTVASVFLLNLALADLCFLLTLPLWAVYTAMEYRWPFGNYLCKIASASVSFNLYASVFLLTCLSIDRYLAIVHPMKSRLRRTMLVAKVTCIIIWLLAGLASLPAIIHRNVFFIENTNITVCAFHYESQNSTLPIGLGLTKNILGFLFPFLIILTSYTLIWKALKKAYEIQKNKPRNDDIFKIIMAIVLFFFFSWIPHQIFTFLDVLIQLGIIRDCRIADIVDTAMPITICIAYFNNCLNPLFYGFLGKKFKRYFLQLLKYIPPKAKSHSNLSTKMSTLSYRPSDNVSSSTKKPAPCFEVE

[3] = target: T1, Type-1 angiotensin II receptor (Homo sapiens); assay: Agonist activity at Flag-tagged AT1R (unknown origin) extracted from HEK293 cell membrane co expressing YPET-ARRB2 assessed as beta-arrestin 2 recruitment using NanoGlo as substrate preincubated for 30 mins followed by substrate addition for 10 mins by BRET assay; format: functional, cell membranes
[4] = target: T1, Type-1 angiotensin II receptor (Homo sapiens); assay: Induction of human NLuc-tagged AT1R (unknown origin) internalization in HEK293 cells co expressing venus-MP using NanoGlo as substrate preincubated for 30 mins followed by substrate addition for 10 mins by BRET assay; format: functional
Cerebral artery [5] = assay: Vaso-constriction activity in male wistar rat middle cerebral artery assessed as arterial contraction at 1 uM in presence of losartan; format: functional, tissue-based
Cerebral artery [6] = assay: Vaso-constriction activity in male wistar rat middle cerebral artery assessed as arterial contraction at 1 uM; format: functional, tissue-based
Cerebral artery [7] = assay: Vaso-constriction activity in male wistar rat middle cerebral artery assessed as arterial contraction at 10 nM; format: functional, tissue-based
[8] = target: T2, Type-1 angiotensin II receptor (Homo sapiens, UniProt P30556); assay: Binding affinity to human AT1R extracted from HEK293T cell membrane assessed as inhibition constant in presence of [125I][Sar1 Ile8]-angiotensin II by competitive radioligand binding assay; format: cell membranes; settings: for Ki: read-out: Ki
T2 sequence (P30556 whole entry): T1 sequence (whole entry)

[9] = target: T3, Type-2 angiotensin II receptor (Homo sapiens, UniProt P50052); assay: Binding affinity to human AT2R extracted from HEK293T cell membrane assessed as inhibition constant in presence of [125I][Sar1 Ile8]-angiotensin II by competitive radioligand binding assay; format: cell membranes
T3 sequence (P50052 whole entry): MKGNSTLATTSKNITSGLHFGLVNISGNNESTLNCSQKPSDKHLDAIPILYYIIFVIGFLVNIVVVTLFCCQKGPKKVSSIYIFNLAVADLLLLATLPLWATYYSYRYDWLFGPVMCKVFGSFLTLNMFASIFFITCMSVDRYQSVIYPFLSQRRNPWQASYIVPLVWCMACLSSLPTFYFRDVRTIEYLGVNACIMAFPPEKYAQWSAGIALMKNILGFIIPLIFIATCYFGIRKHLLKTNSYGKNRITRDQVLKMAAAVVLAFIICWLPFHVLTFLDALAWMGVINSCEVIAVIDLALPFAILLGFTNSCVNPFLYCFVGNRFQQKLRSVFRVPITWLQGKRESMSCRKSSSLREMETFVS

Homo sapiens [10] = species: Homo sapiens; assay: Selectivity index, ratio of Ki for binding affinity to human AT1R extracted from HEK293T cell membrane in presence of [125I][Sar1 Ile8]-angiotensin II by competitive radioligand binding assay to Ki for binding affinity to human AT2R extracted from HEK293T cell membrane in presence of [125I][Sar1 Ile8]-angiotensin II by competitive radioligand binding assay
[11] = target: T1, Type-1 angiotensin II receptor (Homo sapiens); assay: Agonist activity at AT1R (unknown origin) extracted from HEK293 cell membrane coexpressing NLuc and Venus-miniG assessed as miniGq protein recruitment at 1 uM using NanoGlo as substrate preincubated for 30 mins followed by substrate addition for 10 mins by BRET assay; format: functional, cell membranes; settings: filed as agonist, time 40.0 min
[12] = target: T1, Type-1 angiotensin II receptor (Homo sapiens); assay: Binding affinity to human GFP-tagged AT1R (unknown origin) extracted from HEK293 cell membrane assessed as colocalization of AT1R in endocytic vesicles at 100 nM incubated for 30 mins by epifluorescence microscopic analysis; format: cell membranes
[13] = target: T4, Type-2 angiotensin II receptor (Homo sapiens) (UniProt P50052); assay: Binding affinity to human GFP-tagged AT2R extracted from HEK293 cell membrane assessed as colocalization of AT2R in plasma membrane at 100 nM incubated for 30 mins by epifluorescence microscopic analysis; format: cell membranes
T4 sequence (whole entry): T3 sequence (P50052 whole entry)

Homo sapiens [14] = species: Homo sapiens; assay: Selectivity index, ratio of Ki for binding affinity to human AT2R extracted from HEK293T cell membrane in presence of [125I][Sar1 Ile8]-angiotensin II by competitive radioligand binding assay to Ki for binding affinity to human AT1R extracted from HEK293T cell membrane in presence of [125I][Sar1 Ile8]-angiotensin II by competitive radioligand binding assay
[15] = target: T1, Type-1 angiotensin II receptor (Homo sapiens); assay: Induction of human NLuc-tagged AT1R (unknown origin) internalization in HEK293 cells co expressing venus-MP assessed as inhibition of AgII-induced AT1R internalization using NanoGlo as substrate preincubated for 30 mins followed by substrate addition for 10 mins by BRET assay; format: functional
[16] = target: T1, Type-1 angiotensin II receptor (Homo sapiens); assay: Binding affinity to human GFP-tagged AT1R (unknown origin) extracted from HEK293 cell membrane assessed as colocalization of AT1R in plasma membrane at 30 nM preincubated with losartan at 10 uM followed by compound addition for 30 mins by epifluorescence microscopic analysis; format: cell membranes; settings: filed as antagonist
[17] = target: T1, Type-1 angiotensin II receptor (Homo sapiens); assay: Binding affinity to Flag-tagged AT1R (unknown origin) extracted from HEK293 cell membrane assessed as increase in median red fluorescence intensity at 1 nM incubated for 15 mins by flow cytometric analysis; format: cell membranes; settings: filed as antagonist
[18] = target: T1, Type-1 angiotensin II receptor (Homo sapiens); assay: Binding affinity to Flag-tagged AT1R (unknown origin) extracted from HEK293 cell membrane assessed as increase in median red fluorescence intensity at > 30 nM incubated for 30 mins by flow cytometric analysis; format: cell membranes
[19] = target: T1, Type-1 angiotensin II receptor (Homo sapiens); assay: Binding affinity to GFP-tagged AT1R (unknown origin) extracted from HEK293 cell membrane assessed as fluorescent signal in plasma membrane incubated for 15 mins by confocal microscopic analysis; format: cell membranes; settings: filed as antagonist
[20] = target: T4, Type-2 angiotensin II receptor (Homo sapiens); assay: Binding affinity to GFP-tagged AT2R (unknown origin) extracted from HEK293 cell membrane assessed as fluorescent signal in plasma membrane incubated for 15 mins by confocal microscopic analysis; format: cell membranes
[21] = target: T2, Type-1 angiotensin II receptor; assay: Binding affinity to GFP-tagged AT1R (unknown origin) extracted from HEK293 cell membrane assessed as dissociation constant; format: cell membranes
[22] = target: T2, Type-1 angiotensin II receptor; assay: Antagonist activity at Flag-tagged AT1R (unknown origin) extracted from HEK293 cell membrane co expressing YPET-ARRB1 assessed as beta-arrestin 1 recruitment using NanoGlo as substrate preincubated for 30 mins followed by substrate addition for 10 mins by BRET assay; format: functional, cell membranes
[23] = target: T2, Type-1 angiotensin II receptor; assay: Antagonist activity at Flag-tagged AT1R (unknown origin) extracted from HEK293 cell membrane co expressing YPET-ARRB2 assessed as beta-arrestin 2 recruitment using NanoGlo as substrate preincubated for 30 mins followed by substrate addition for 10 mins by BRET assay; format: functional, cell membranes
[24] = target: T2, Type-1 angiotensin II receptor; assay: Antagonist activity at Flag-tagged AT1R (unknown origin) extracted from HEK293 cell membrane assessed as increase in intracellular calcium incubated for 30 mins by microplate reader analysis; format: functional, cell membranes

CC[C@H](C)[C@H](NC(=O)[C@@H](NC(=O)[C@H](CC(=O)O)NC(=O)[C@@H]1CCCN1C(=O)[C@H](Cc1c[nH]cn1)NC(=O)[C@H](Cc1ccccc1)NC(=O)[C@H](Cc1ccc(O)cc1)NC(=O)CCCCCN1/C(=C\C=C\C2=[N+](C)c3ccccc3C2(C)C)C(C)(C)c2ccccc21)C(C)C)C(=O)N[C@@H](CCCNC(=N)N)C(=O)O (X1-YFHPDVIR-OH)
Activity [1]: 0.101 | Activity [2]: inactive | Activity [3]: inactive | Activity [4]: inactive | Activity (Cerebral artery [5]): Active

CC[C@H](C)[C@H](NC(=O)[C@H](Cc1ccc(O)cc1)NC(=O)[C@@H](NC(=O)[C@H](CCCNC(=N)N)NC(=O)[C@H](CC(=O)O)NC(=O)CCCCCN1/C(=C\C=C\C2=[N+](C)c3ccccc3C2(C)C)C(C)(C)c2ccccc21)C(C)C)C(=O)N[C@@H](Cc1c[nH]cn1)C(=O)N1CCC[C@H]1C(=O)N[C@@H](Cc1ccccc1)C(=O)O
Activity [1]: 0.08 | Activity (Cerebral artery [6]): Active | Activity (Cerebral artery [7]): Active

CC[C@H](C)[C@H](NC(=O)[C@H](Cc1ccc(O)cc1)NC(=O)[C@@H](NC(=O)[C@H](CCCNC(=N)N)NC(=O)[C@H](CC(=O)O)NC(=O)CCOCCOCCNC(=O)CCCCCN1/C(=C\C=C\C2=[N+](C)c3ccccc3C2(C)C)C(C)(C)c2ccccc21)C(C)C)C(=O)N[C@@H](Cc1c[nH]cn1)C(=O)N1CCC[C@H]1C(=O)N[C@@H](Cc1ccccc1)C(=O)O
Activity [1]: 0.068 | Activity (Cerebral artery [6]): Active | Activity (Cerebral artery [7]): Active

CC[C@H](C)[C@H](NC(=O)[C@H](Cc1ccc(O)cc1)NC(=O)[C@@H](NC(=O)[C@H](CCCNC(=N)N)NC(=O)CN(C)C(=O)CCOCCOCCNC(=O)CCCCCN1/C(=C\C=C\C2=[N+](C)c3ccccc3C2(C)C)C(C)(C)c2ccccc21)C(C)C)C(=O)N[C@@H](Cc1c[nH]cn1)C(=O)N1CCC[C@H]1C(=O)N[C@@H](C)C(=O)O
pKi ([8]; hek293t): < 5 | Ki [8]: > 10000 nM | Ki ([9]; read-out: Ki): 22.6 nM | Ki ([9]; read-out: pKi (converted)): 16.2 nM | Ratio Ki (Homo sapiens [10]): > 500 | Activity [1]: 0.058 | Activity [11]: Active | Activity (Cerebral artery [6]): Active | Activity [12]: inactive | Activity [13]: inactive

CCCCc1nc(Cl)c(C(=O)NCCOCCOCCNC(=O)CCCCCN2/C(=C/C=C/C3=[N+](C)c4ccccc4C3(C)C)C(C)(C)c3ccccc32)n1Cc1ccc(-c2ccccc2-c2nn[nH]n2)cc1.F[B-](F)(F)F
Ki [8]: 10.7 nM | Ki ([9]; read-out: Ki): 5570 nM | Ki ([9]; read-out: pKi (converted)): 3020 nM | Ratio Ki (Homo sapiens [14]): 521 | Activity [1]: 0.232 | Activity [15]: Dose-dependent-effect | Activity [16]: Active | Activity [17]: Active | Activity [18]: inactive | Activity [19]: Active | Activity [20]: inactive | Kd [21]: ~30 nM | EC50 [22]: Active | EC50 [23]: Active | EC50 [24]: Active
